Patent publication US20250353891A1 (MEDIMMUNE LIMITED, priority 2022, published 2025)
Starred links: 1 amine or outer side, 2 acyl side, 3 side chain; linkers in the order of their positions; H or OH if unused. Non-standard residues stand in square brackets, D forms with d. Residues, ends and D or L forms follow the SMILES beside them. Groups on a side chain read outwards from the residue. *: point of attachment. C18 diacid = O=C(O)CCCCCCCCCCCCCCCCC(=O)*; γGlu = O=C(O)[C@H](CCC(=O)[*:2])N[*:1]; αMeF = C[C@](N)(Cc1ccccc1)C(=O)O; AEEA = NCCOCCOCC(=O)O; Aib = CC(C)(N)C(=O)O

Assays:
[1] = target: human glucagon receptor (hGCGR) (Homo sapiens, UniProt P47871); experiment: cAMP production (HTRF) in CHO cells expressing hGCGR; type: cell-based; set-up: expressed in transfected cells; details: Table 6, peptides modified at position 17; cAMP in CHO hGCGR cells; geometric mean; read-out: hGluc-R EC50
human glucagon receptor (hGCGR), sequence (P47871 26-477): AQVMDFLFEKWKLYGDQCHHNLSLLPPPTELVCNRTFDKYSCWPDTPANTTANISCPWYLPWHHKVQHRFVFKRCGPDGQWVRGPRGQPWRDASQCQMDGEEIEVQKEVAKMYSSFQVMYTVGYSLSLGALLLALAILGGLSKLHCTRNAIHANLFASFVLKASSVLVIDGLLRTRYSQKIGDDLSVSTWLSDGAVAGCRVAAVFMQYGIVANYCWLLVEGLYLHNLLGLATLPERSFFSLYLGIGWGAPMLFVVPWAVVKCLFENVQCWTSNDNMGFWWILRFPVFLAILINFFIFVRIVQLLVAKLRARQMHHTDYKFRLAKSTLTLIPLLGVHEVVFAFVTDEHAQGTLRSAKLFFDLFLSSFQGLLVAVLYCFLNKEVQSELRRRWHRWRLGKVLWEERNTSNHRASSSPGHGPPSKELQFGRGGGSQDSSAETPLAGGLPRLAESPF
Summary of the method: (§1)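 Cells were resuspended in assay buffer at batch-optimized density, typically 1×10^5 cells/mL for hGLP-1R and 2×10^5 cells/mL for hGCGR. After 30 min incubation at room temperature with compound, cAMP was measured by two-step HTRF. EC50 values came from 4-parameter logistic fits of % Delta F.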

[2] = target: human GLP-1 receptor (hGLP-1R) (Homo sapiens, UniProt P43220); experiment: cAMP production (HTRF) in CHO cells expressing hGLP-1R; type: cell-based; set-up: expressed in transfected cells; details: for EC50: Table 6, peptides modified at position 17, cAMP in CHO hGLP-1R cells, geometric mean, read-out: hGLP-1R EC50; for % Relative Potency Ratio: Table 6, % GLP-1R activity relative to GLP-1 / % GlucR activity relative to glucagon
human GLP-1 receptor (hGLP-1R), sequence (P43220 24-463): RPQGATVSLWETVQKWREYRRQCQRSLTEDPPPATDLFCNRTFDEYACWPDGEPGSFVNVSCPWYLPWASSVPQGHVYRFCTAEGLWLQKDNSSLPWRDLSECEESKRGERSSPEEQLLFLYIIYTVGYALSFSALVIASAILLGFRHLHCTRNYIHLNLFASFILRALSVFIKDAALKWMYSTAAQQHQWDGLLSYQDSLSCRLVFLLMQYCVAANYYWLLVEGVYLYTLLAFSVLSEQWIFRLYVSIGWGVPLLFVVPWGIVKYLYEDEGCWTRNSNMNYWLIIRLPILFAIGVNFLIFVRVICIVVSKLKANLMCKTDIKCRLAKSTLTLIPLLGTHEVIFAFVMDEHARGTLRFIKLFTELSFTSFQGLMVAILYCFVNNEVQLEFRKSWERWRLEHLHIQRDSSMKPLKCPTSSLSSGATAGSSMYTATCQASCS
Summary of the method: as §1

Row | Compound | EC50 [1] [nM] | EC50 [2] [nM] | % Relative Potency Ratio [2]
1 | CC[C@H](C)[C@H](NC(=O)[C@H](Cc1c[nH]c2ccccc12)NC(=O)[C@H](CCC(=O)O)NC(=O)[C@@H](NC(=O)[C@](C)(Cc1ccccc1)NC(=O)[C@H](CC(=O)O)NC(=O)[C@H](CCC(N)=O)NC(=O)[C@H](C)NC(=O)[C@H](C)NC(=O)[C@H](CCCCNC(=O)COCCOCCNC(=O)COCCOCCNC(=O)CC[C@H](NC(=O)CCCCCCCCCCCCCCCCC(=O)O)C(=O)O)NC(=O)[C@H](CO)NC(=O)[C@H](CC(=O)O)NC(=O)[C@H](CC(C)C)NC(=O)[C@](C)(Cc1ccccc1)NC(=O)[C@H](CCCCN)NC(=O)[C@H](CO)NC(=O)[C@@H](NC(=O)[C@H](CC(=O)O)NC(=O)[C@H](CO)NC(=O)[C@@H](NC(=O)[C@](C)(Cc1ccccc1)NC(=O)[C@H](CO)NC(=O)CNC(=O)[C@H](CCC(N)=O)NC(=O)C(C)(C)NC(=O)[C@@H](N)Cc1c[nH]cn1)[C@@H](C)O)C(C)C)C(C)C)C(=O)N[C@@H](C)C(=O)N[C@@H](CC(N)=O)C(N)=O [Peptide 27] (H-H[Aib]QGS[αMeF]TSDVSK[αMeF]LDSK([AEEA-AEEA-γGlu-C18 diacid])AAQD[αMeF]VEWIAN-NH2; N-terminus assumed) | 1.44 | 0.0182 | 156.4
2 | CC(C)C[C@H](NC(=O)[C@H](Cc1c[nH]c2ccccc12)NC(=O)[C@H](CCCNC(=N)N)NC(=O)[C@@H](NC(=O)[C@H](Cc1ccccc1)NC(=O)[C@H](CC(=O)O)NC(=O)[C@H](CCC(N)=O)NC(=O)[C@H](C)NC(=O)[C@H](CCCNC(=N)N)NC(=O)[C@H](CCCCNC(=O)COCCOCCNC(=O)COCCOCCNC(=O)CC[C@H](NC(=O)CCCCCCCCCCCCCCCCC(=O)O)C(=O)O)NC(=O)[C@H](CO)NC(=O)[C@H](CC(=O)O)NC(=O)[C@H](CC(C)C)NC(=O)[C@](C)(Cc1ccccc1)NC(=O)[C@H](CCCCN)NC(=O)[C@H](CO)NC(=O)[C@@H](NC(=O)[C@H](CC(=O)O)NC(=O)[C@H](CO)NC(=O)[C@@H](NC(=O)[C@H](Cc1ccccc1)NC(=O)[C@@H](NC(=O)CNC(=O)[C@H](CCC(N)=O)NC(=O)C(C)(C)NC(=O)[C@@H](N)Cc1c[nH]cn1)[C@@H](C)O)[C@@H](C)O)C(C)C)C(C)C)C(=O)N[C@@H](CC(C)C)C(=O)NC(C)(C)C(=O)N[C@H](C(=O)O)[C@@H](C)O [Peptide 28] (H-H[Aib]QGTFTSDVSK[αMeF]LDSK([AEEA-AEEA-γGlu-C18 diacid])RAQDFVRWLL[Aib]T-OH) | 0.26 | 0.129 | 4.0
3 | CC(C)C[C@H](NC(=O)[C@H](Cc1c[nH]c2ccccc12)NC(=O)[C@H](CCC(N)=O)NC(=O)[C@@H](NC(=O)[C@H](Cc1ccccc1)NC(=O)[C@H](CC(=O)O)NC(=O)C(C)(C)NC(=O)[C@H](C)NC(=O)[C@H](CCCNC(=N)N)NC(=O)[C@H](CCCCNC(=O)COCCOCCNC(=O)COCCOCCNC(=O)CC[C@H](NC(=O)CCCCCCCCCCCCCCCCC(=O)O)C(=O)O)NC(=O)[C@H](CO)NC(=O)[C@H](CC(=O)O)NC(=O)[C@H](CC(C)C)NC(=O)[C@](C)(Cc1ccccc1)NC(=O)[C@H](CCCCN)NC(=O)[C@H](CO)NC(=O)[C@@H](NC(=O)[C@H](CC(=O)O)NC(=O)[C@H](CO)NC(=O)[C@@H](NC(=O)[C@H](Cc1ccccc1)NC(=O)[C@@H](NC(=O)CNC(=O)[C@H](CCC(N)=O)NC(=O)C(C)(C)NC(=O)[C@@H](N)Cc1c[nH]cn1)[C@@H](C)O)[C@@H](C)O)C(C)C)C(C)C)C(=O)N[C@@H](CC(C)C)C(=O)NC(C)(C)C(=O)N[C@H](C(=O)O)[C@@H](C)O [Peptide 29] (H-H[Aib]QGTFTSDVSK[αMeF]LDSK([AEEA-AEEA-γGlu-C18 diacid])RA[Aib]DFVQWLL[Aib]T-OH; N-terminus assumed) | 0.629 | 0.107 | 11.7
4 | CC(C)C[C@H](NC(=O)[C@H](Cc1c[nH]c2ccccc12)NC(=O)[C@H](CCCNC(=N)N)NC(=O)[C@@H](NC(=O)[C@H](Cc1ccccc1)NC(=O)[C@H](CC(=O)O)NC(=O)[C@H](CCC(N)=O)NC(=O)[C@H](C)NC(=O)[C@H](CCCNC(=N)N)NC(=O)[C@H](CCCCNC(=O)COCCOCCNC(=O)COCCOCCNC(=O)CC[C@H](NC(=O)CCCCCCCCCCCCCCCCC(=O)O)C(=O)O)NC(=O)[C@H](CO)NC(=O)[C@H](CC(=O)O)NC(=O)[C@H](CC(C)C)NC(=O)[C@](C)(Cc1ccccc1)NC(=O)[C@H](CCCCN)NC(=O)[C@H](CO)NC(=O)[C@@H](NC(=O)[C@H](CC(=O)O)NC(=O)[C@H](CO)NC(=O)[C@@H](NC(=O)[C@H](Cc1ccccc1)NC(=O)[C@@H](NC(=O)CNC(=O)[C@H](CCC(N)=O)NC(=O)C(C)(C)NC(=O)[C@@H](N)Cc1c[nH]cn1)[C@@H](C)O)[C@@H](C)O)C(C)C)C(C)C)C(=O)N[C@@H](CC(C)C)C(=O)NC(C)(C)C(=O)N[C@H](C(=O)NCC(=O)O)[C@@H](C)O [Peptide 30] (H-H[Aib]QGTFTSDVSK[αMeF]LDSK([AEEA-AEEA-γGlu-C18 diacid])RAQDFVRWLL[Aib]TG-OH; N-terminus assumed) | 0.235 | 0.0527 | 8.8
5 | CC(C)C[C@H](NC(=O)[C@H](Cc1c[nH]c2ccccc12)NC(=O)[C@H](CCCNC(=N)N)NC(=O)[C@@H](NC(=O)[C@H](Cc1ccccc1)NC(=O)[C@H](CC(=O)O)NC(=O)[C@H](CCC(N)=O)NC(=O)[C@H](C)NC(=O)[C@H](CCCNC(=N)N)NC(=O)[C@H](CCCCNC(=O)COCCOCCNC(=O)COCCOCCNC(=O)CC[C@H](NC(=O)CCCCCCCCCCCCCCCCC(=O)O)C(=O)O)NC(=O)[C@H](CO)NC(=O)[C@H](CC(=O)O)NC(=O)[C@H](CC(C)C)NC(=O)[C@](C)(Cc1ccccc1)NC(=O)[C@H](CCCCN)NC(=O)[C@H](CO)NC(=O)[C@@H](NC(=O)[C@H](CC(=O)O)NC(=O)[C@H](CO)NC(=O)[C@@H](NC(=O)[C@H](Cc1ccccc1)NC(=O)[C@@H](NC(=O)CNC(=O)[C@H](CCC(N)=O)NC(=O)C(C)(C)NC(=O)[C@@H](N)Cc1c[nH]cn1)[C@@H](C)O)[C@@H](C)O)C(C)C)C(C)C)C(=O)N[C@@H](CC(C)C)C(=O)N[C@@H](CCC(=O)O)C(=O)NC(C)(C)C(=O)NCC(=O)O [Peptide 31] (H-H[Aib]QGTFTSDVSK[αMeF]LDSK([AEEA-AEEA-γGlu-C18 diacid])RAQDFVRWLLE[Aib]G-OH; N-terminus assumed) | 0.0568 | 0.0413 | 2.7
6 | CC[C@H](C)[C@H](NC(=O)[C@H](Cc1c[nH]c2ccccc12)NC(=O)[C@H](CCC(N)=O)NC(=O)[C@@H](NC(=O)[C@H](Cc1ccccc1)NC(=O)[C@H](CC(=O)O)NC(=O)C(C)(C)NC(=O)[C@H](C)NC(=O)[C@H](CCCNC(=N)N)NC(=O)[C@H](CCCCNC(=O)CC[C@H](NC(=O)CCCCCCCCCCCCCCCCC(=O)O)C(=O)O)NC(=O)[C@H](CO)NC(=O)[C@H](CC(=O)O)NC(=O)[C@H](CC(C)C)NC(=O)[C@](C)(Cc1ccccc1)NC(=O)[C@H](CCCCN)NC(=O)[C@H](CO)NC(=O)[C@@H](NC(=O)[C@H](CC(=O)O)NC(=O)[C@H](CO)NC(=O)[C@@H](NC(=O)[C@H](Cc1ccccc1)NC(=O)[C@@H](NC(=O)CNC(=O)[C@H](CCC(N)=O)NC(=O)C(C)(C)NC(=O)[C@@H](N)Cc1c[nH]cn1)[C@@H](C)O)[C@@H](C)O)C(C)C)C(C)C)C(=O)N[C@@H](C)C(=O)N[C@@H](CC(N)=O)C(=O)N[C@H](C(N)=O)[C@@H](C)O [Peptide 32] (H-H[Aib]QGTFTSDVSK[αMeF]LDSK([γGlu-C18 diacid])RA[Aib]DFVQWIANT-NH2; N-terminus assumed) | 0.24 | 0.013 | 36.7
7 | CC(C)C[C@H](NC(=O)[C@H](Cc1c[nH]c2ccccc12)NC(=O)[C@H](CCC(N)=O)NC(=O)[C@@H](NC(=O)[C@H](Cc1ccccc1)NC(=O)[C@H](CC(=O)O)NC(=O)[C@H](CCC(N)=O)NC(=O)[C@H](C)NC(=O)[C@H](CCCNC(=N)N)NC(=O)[C@H](CCCCNC(=O)COCCOCCNC(=O)COCCOCCNC(=O)CC[C@H](NC(=O)CCCCCCCCCCCCCCCCC(=O)O)C(=O)O)NC(=O)[C@H](CO)NC(=O)[C@H](CC(=O)O)NC(=O)[C@H](CC(C)C)NC(=O)[C@](C)(Cc1ccccc1)NC(=O)[C@H](CCCCN)NC(=O)[C@H](CO)NC(=O)[C@@H](NC(=O)[C@H](CC(=O)O)NC(=O)[C@H](CO)NC(=O)[C@@H](NC(=O)[C@H](Cc1ccccc1)NC(=O)[C@@H](NC(=O)CNC(=O)[C@H](CCC(N)=O)NC(=O)C(C)(C)NC(=O)[C@@H](N)Cc1c[nH]cn1)[C@@H](C)O)[C@@H](C)O)C(C)C)C(C)C)C(=O)N[C@@H](CCC(=O)O)C(=O)NC(C)(C)C(=O)N[C@H](C(=O)O)[C@@H](C)O [Peptide 33] (H-H[Aib]QGTFTSDVSK[αMeF]LDSK([AEEA-AEEA-γGlu-C18 diacid])RAQDFVQWLE[Aib]T-OH) | 0.548 | 0.213 | 5.1
8 | CC(C)C[C@H](NC(=O)[C@H](Cc1c[nH]c2ccccc12)NC(=O)[C@H](CCC(N)=O)NC(=O)[C@@H](NC(=O)[C@H](Cc1ccccc1)NC(=O)[C@H](CC(=O)O)NC(=O)[C@H](CCC(N)=O)NC(=O)[C@H](C)NC(=O)[C@H](CCCNC(=N)N)NC(=O)[C@H](CCCCNC(=O)COCCOCCNC(=O)COCCOCCNC(=O)CC[C@H](NC(=O)CCCCCCCCCCCCCCCCC(=O)O)C(=O)O)NC(=O)[C@H](CO)NC(=O)[C@H](CC(=O)O)NC(=O)[C@H](CC(C)C)NC(=O)[C@](C)(Cc1ccccc1)NC(=O)[C@H](CCCCN)NC(=O)[C@H](CO)NC(=O)[C@@H](NC(=O)[C@H](CC(=O)O)NC(=O)[C@H](CO)NC(=O)[C@@H](NC(=O)[C@H](Cc1ccccc1)NC(=O)[C@@H](NC(=O)CNC(=O)[C@H](CCC(N)=O)NC(=O)C(C)(C)NC(=O)[C@@H](N)Cc1c[nH]cn1)[C@@H](C)O)[C@@H](C)O)C(C)C)C(C)C)C(=O)N[C@@H](CC(C)C)C(=O)NC(C)(C)C(=O)N[C@@H](CCC(=O)O)C(=O)O [Peptide 34] (H-H[Aib]QGTFTSDVSK[αMeF]LDSK([AEEA-AEEA-γGlu-C18 diacid])RAQDFVQWLL[Aib]E-OH; N-terminus assumed) | 0.161 | 0.0824 | 3.9
